Assay results: ChEMBL document CHEMBL4725218, “Deep Learning Enhancing Kinome-Wide Polypharmacology Profiling: Model Construction and Experiment Validation” (J Med Chem, 2020)

What was measured:
[1] = target: Tyrosine-protein kinase ABL2 (Mus musculus) (UniProt Q4JIM5); assay: Inhibition of mouse ARG assessed as remaining enzyme activity at 0.01 uM
[2] = target: Epithelial discoidin domain-containing receptor 1 (Homo sapiens) (UniProt Q08345); assay: Inhibition of human DDR1 assessed as remaining enzyme activity at 0.01 uM
Chain of Epithelial discoidin domain-containing receptor 1 (Homo sapiens) (Q08345 whole entry, the tested form may be a part): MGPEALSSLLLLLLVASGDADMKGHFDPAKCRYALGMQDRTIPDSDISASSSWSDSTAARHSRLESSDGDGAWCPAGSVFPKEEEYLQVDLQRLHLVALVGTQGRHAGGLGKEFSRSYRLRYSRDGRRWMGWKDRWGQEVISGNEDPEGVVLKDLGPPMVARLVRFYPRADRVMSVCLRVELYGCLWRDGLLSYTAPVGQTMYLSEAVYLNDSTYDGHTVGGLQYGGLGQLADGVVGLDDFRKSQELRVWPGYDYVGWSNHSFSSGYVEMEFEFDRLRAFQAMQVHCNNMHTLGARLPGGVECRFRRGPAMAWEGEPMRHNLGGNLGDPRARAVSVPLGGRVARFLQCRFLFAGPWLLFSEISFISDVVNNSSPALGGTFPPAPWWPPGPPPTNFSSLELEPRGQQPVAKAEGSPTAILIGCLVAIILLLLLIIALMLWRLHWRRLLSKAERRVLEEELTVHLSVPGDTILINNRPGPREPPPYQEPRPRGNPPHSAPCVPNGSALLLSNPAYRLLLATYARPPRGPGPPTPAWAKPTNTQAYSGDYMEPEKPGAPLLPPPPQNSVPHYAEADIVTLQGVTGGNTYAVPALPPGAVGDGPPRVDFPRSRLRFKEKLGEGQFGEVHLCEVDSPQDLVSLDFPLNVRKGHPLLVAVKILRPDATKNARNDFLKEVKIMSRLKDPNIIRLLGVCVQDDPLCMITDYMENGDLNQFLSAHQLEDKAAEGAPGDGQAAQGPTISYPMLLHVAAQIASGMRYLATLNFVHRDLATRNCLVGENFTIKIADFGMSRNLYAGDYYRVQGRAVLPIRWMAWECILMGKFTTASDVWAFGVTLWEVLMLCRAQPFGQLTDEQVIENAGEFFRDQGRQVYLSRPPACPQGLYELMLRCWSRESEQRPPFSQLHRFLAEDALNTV

[3] = target: Ephrin type-A receptor 2 (Homo sapiens) (UniProt P29317); assay: Inhibition of human EphA2 assessed as remaining enzyme activity at 1 uM
Chain of Ephrin type-A receptor 2 (Homo sapiens) (P29317 whole entry): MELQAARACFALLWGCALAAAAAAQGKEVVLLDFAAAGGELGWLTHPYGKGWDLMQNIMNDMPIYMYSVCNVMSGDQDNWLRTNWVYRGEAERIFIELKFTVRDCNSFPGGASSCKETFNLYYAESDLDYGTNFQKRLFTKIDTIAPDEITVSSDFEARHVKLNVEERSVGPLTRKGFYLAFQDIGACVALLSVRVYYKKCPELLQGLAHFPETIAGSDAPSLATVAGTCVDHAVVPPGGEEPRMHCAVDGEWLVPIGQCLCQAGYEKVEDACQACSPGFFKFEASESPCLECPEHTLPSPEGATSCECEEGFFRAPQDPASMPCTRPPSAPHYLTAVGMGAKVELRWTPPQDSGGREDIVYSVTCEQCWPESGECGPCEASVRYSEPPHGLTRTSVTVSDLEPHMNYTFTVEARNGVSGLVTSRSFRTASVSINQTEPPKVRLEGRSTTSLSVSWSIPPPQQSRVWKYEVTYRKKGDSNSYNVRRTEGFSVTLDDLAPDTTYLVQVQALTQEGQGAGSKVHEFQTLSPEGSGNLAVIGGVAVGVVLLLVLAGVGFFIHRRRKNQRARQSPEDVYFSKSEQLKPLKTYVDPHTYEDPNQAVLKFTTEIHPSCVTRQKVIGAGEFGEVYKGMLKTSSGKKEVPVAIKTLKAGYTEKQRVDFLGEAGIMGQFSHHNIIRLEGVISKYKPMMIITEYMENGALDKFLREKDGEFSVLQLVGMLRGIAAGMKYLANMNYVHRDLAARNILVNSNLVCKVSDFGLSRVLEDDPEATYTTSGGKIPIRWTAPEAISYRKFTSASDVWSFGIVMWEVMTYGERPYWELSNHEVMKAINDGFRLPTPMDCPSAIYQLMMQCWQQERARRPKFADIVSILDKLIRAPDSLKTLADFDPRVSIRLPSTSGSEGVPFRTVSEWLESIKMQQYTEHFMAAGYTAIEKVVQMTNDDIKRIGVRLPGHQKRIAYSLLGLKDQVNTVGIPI

[4] = target: RAF proto-oncogene serine/threonine-protein kinase (Homo sapiens) (UniProt P04049); assay: Inhibition of human C-Raf assessed as remaining enzyme activity at 0.01 uM
[5] = target: Tyrosine-protein kinase ABL1 (Mus musculus) (UniProt P00520); assay: Inhibition of mouse Abl assessed as remaining enzyme activity at 1 uM
[6] = target: Tyrosine-protein kinase FRK (Homo sapiens) (UniProt P42685); assay: Inhibition of human PTK5 assessed as remaining enzyme activity at 0.1 uM
Chain of Tyrosine-protein kinase FRK (Homo sapiens) (P42685 whole entry): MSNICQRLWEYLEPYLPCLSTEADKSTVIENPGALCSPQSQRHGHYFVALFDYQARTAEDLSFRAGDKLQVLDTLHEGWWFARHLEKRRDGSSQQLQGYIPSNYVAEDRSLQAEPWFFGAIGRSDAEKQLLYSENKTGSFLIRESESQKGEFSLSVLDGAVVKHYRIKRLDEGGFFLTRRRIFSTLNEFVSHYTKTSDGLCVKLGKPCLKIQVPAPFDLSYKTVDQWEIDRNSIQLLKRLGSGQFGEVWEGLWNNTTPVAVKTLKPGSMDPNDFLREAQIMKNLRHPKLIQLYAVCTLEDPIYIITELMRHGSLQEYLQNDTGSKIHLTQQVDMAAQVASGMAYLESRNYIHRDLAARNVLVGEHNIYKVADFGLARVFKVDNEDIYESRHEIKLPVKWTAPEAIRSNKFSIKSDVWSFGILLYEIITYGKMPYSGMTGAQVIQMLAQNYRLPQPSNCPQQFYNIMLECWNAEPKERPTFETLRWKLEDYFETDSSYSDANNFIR

[7] = target: Ephrin type-A receptor 2 (Homo sapiens) (UniProt P29317); assay: Inhibition of human EphA2 assessed as remaining enzyme activity at 0.01 uM
[8] = target: Tyrosine-protein kinase Lyn (Homo sapiens) (UniProt P07948); assay: Inhibition of human LYN assessed as remaining enzyme activity at 0.1 uM
[9] = target: Tyrosine-protein kinase ABL2 (Mus musculus) (UniProt Q4JIM5); assay: Inhibition of mouse ARG assessed as remaining enzyme activity at 1 uM
[10] = target: Tyrosine-protein kinase Blk (Mus musculus) (UniProt P16277); assay: Inhibition of mouse BLK assessed as remaining enzyme activity at 0.1 uM
[11] = target: T1, Homeodomain-interacting protein kinase 4 (Homo sapiens) (UniProt Q8NE63); assay: Inhibition of human HIPK4 assessed as remaining enzyme activity at 0.1 uM
T1 sequence (whole entry): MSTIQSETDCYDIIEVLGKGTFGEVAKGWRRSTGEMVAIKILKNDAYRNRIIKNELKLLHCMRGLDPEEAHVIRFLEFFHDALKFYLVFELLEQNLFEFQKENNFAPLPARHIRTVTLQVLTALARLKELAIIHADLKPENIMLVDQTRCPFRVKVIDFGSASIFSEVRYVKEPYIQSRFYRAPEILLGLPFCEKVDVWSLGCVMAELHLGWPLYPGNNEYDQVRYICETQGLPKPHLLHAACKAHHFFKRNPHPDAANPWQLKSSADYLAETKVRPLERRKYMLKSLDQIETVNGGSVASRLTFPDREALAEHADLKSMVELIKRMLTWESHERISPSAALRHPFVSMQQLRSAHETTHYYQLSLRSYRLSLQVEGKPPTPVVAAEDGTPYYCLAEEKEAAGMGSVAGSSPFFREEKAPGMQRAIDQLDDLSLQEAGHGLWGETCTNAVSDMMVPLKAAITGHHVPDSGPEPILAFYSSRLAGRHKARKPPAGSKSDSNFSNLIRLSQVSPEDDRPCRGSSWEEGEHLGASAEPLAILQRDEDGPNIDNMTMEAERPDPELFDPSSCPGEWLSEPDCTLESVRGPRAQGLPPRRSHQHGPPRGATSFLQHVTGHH

[12] = target: Mitogen-activated protein kinase kinase kinase 20 (Homo sapiens) (UniProt Q9NYL2); assay: Inhibition of human ZAK assessed as remaining enzyme activity at 1 uM
[13] = target: Macrophage colony-stimulating factor 1 receptor (Homo sapiens) (UniProt P07333); assay: Inhibition of human FMS assessed as remaining enzyme activity at 0.1 uM
[14] = target: Vascular endothelial growth factor receptor 2 (Homo sapiens) (UniProt P35968); assay: Inhibition of human VEGFR2 assessed as remaining enzyme activity at 1 uM
[15] = target: Serine/threonine-protein kinase B-raf (Homo sapiens) (UniProt P15056); assay: Inhibition of human B-Raf assessed as remaining enzyme activity at 1 uM
[16] = target: Serine/threonine-protein kinase B-raf (Homo sapiens) (UniProt P15056); assay: Inhibition of human B-Raf assessed as remaining enzyme activity at 0.1 uM
[17] = target: Vascular endothelial growth factor receptor 1 (Homo sapiens) (UniProt P17948); assay: Inhibition of human VEGFR1 assessed as remaining enzyme activity at 1 uM
Chain of Vascular endothelial growth factor receptor 1 (Homo sapiens) (P17948 whole entry): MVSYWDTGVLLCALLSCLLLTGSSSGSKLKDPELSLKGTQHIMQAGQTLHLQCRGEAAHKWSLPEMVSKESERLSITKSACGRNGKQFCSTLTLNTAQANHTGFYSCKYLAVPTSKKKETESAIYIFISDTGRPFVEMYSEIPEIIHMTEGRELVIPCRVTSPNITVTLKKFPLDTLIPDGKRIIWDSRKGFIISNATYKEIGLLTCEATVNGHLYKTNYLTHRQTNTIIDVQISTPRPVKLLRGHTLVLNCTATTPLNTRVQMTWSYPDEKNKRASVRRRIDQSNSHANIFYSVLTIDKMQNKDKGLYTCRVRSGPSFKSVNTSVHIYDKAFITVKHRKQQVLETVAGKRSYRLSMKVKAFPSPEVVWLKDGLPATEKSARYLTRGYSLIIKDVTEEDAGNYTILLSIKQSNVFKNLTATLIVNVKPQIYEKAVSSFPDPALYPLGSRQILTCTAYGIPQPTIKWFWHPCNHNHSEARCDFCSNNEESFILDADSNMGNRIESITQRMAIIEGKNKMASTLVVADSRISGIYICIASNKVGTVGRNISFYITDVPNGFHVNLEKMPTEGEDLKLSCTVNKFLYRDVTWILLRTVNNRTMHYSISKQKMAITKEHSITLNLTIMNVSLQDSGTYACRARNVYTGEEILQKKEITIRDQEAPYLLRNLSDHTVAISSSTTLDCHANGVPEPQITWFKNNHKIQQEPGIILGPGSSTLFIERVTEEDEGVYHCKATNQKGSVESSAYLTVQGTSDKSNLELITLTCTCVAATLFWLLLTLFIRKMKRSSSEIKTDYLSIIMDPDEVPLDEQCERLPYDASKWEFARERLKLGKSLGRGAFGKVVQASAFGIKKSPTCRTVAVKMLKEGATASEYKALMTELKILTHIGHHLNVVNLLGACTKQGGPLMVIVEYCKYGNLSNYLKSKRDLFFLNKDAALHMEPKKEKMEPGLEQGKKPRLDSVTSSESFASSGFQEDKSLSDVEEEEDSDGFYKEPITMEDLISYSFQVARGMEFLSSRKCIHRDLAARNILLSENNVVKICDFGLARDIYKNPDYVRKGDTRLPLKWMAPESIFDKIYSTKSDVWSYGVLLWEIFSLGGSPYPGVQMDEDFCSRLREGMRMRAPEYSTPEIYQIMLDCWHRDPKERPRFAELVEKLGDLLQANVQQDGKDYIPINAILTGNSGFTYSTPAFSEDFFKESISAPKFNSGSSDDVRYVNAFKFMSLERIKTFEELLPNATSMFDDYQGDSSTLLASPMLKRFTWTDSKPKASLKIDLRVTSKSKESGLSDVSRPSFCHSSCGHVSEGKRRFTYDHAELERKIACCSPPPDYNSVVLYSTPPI

[18] = target: Tyrosine-protein kinase FRK (Homo sapiens) (UniProt P42685); assay: Inhibition of human PTK5 assessed as remaining enzyme activity at 1 uM
[19] = target: Tyrosine-protein kinase ABL1 (Homo sapiens) (UniProt P00519); assay: Inhibition of human ABL assessed as remaining enzyme activity at 0.01 uM
[20] = target: MAP kinase-interacting serine/threonine-protein kinase 2 (Homo sapiens) (UniProt Q9HBH9); assay: Inhibition of human MNK2 assessed as remaining enzyme activity at 1 uM
[21] = target: Mast/stem cell growth factor receptor Kit (Homo sapiens) (UniProt P10721); assay: Inhibition of human c-Kit assessed as remaining enzyme activity at 1 uM
[22] = target: Epithelial discoidin domain-containing receptor 1 (Homo sapiens) (UniProt Q08345); assay: Inhibition of human DDR1 assessed as remaining enzyme activity at 0.1 uM
[23] = target: Serine/threonine-protein kinase TAO1 (Homo sapiens) (UniProt Q7L7X3); assay: Inhibition of human TAO1 assessed as remaining enzyme activity at 1 uM
[24] = target: Mitogen-activated protein kinase 14 (Homo sapiens) (UniProt Q16539); assay: Inhibition of human p38alpha assessed as remaining enzyme activity at 0.01 uM
[25] = target: Mitogen-activated protein kinase kinase kinase kinase 5 (Homo sapiens) (UniProt Q9Y4K4); assay: Inhibition of human MAP4K5 assessed as remaining enzyme activity at 0.1 uM
[26] = target: Tyrosine-protein kinase Blk (Mus musculus) (UniProt P16277); assay: Inhibition of mouse BLK assessed as remaining enzyme activity at 0.01 uM
[27] = target: BDNF/NT-3 growth factors receptor (Homo sapiens) (UniProt Q16620); assay: Inhibition of human TRKB assessed as remaining enzyme activity at 0.1 uM
[28] = target: Vascular endothelial growth factor receptor 3 (Homo sapiens) (UniProt P35916); assay: Inhibition of human VEGFR3 assessed as remaining enzyme activity at 0.01 uM
[29] = target: Vascular endothelial growth factor receptor 2 (Homo sapiens) (UniProt P35968); assay: Inhibition of human VEGFR2 assessed as remaining enzyme activity at 0.01 uM
[30] = target: Vascular endothelial growth factor receptor 1 (Homo sapiens) (UniProt P17948); assay: Inhibition of human VEGFR1 assessed as remaining enzyme activity at 0.1 uM
[31] = target: Mitogen-activated protein kinase 14 (Homo sapiens) (UniProt Q16539); assay: Inhibition of human p38alpha assessed as remaining enzyme activity at 1 uM

Chain of Tyrosine-protein kinase ABL2 (Mus musculus) (Q4JIM5 whole entry, the tested form may be a part): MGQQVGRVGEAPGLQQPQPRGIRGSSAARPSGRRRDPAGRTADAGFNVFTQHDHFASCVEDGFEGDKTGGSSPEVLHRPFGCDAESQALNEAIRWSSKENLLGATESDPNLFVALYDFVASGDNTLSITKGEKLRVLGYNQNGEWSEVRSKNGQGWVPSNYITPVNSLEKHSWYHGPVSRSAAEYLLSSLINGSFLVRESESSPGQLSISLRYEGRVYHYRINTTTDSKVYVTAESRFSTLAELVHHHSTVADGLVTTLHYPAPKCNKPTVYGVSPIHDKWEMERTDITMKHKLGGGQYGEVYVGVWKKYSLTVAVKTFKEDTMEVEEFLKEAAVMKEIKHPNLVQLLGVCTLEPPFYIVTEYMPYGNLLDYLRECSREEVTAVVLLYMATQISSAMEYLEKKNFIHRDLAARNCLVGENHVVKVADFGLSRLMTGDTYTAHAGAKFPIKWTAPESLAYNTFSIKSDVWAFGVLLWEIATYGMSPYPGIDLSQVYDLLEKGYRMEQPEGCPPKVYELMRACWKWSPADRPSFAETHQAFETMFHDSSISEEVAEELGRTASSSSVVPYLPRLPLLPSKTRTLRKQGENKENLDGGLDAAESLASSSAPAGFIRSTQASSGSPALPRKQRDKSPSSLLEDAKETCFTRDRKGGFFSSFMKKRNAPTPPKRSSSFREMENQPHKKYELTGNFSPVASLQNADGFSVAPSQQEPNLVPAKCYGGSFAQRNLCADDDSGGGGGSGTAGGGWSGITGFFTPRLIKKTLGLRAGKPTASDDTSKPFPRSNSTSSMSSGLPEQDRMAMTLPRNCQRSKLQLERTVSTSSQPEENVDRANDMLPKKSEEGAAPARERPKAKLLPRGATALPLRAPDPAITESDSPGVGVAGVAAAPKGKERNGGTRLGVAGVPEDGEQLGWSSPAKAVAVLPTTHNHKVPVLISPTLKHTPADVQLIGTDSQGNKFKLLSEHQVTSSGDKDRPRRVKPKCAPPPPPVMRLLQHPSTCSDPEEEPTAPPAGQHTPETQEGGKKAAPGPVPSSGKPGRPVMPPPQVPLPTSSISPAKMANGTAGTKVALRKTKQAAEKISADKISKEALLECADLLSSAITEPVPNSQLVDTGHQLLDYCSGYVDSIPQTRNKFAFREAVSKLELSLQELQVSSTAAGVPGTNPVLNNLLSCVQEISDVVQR

Activity [1]: 97%
Activity [2]: 92%
Activity [3]: 5%
Activity [4]: 93%
Activity [5]: -1%
Activity [6]: 18%
Activity [7]: 90%
Activity [8]: 21%
Activity [9]: 9%
Activity [10]: 45%
Activity [11]: 3%
Activity [12]: -1%
Activity [13]: 36%
Activity [14]: 17%
Activity [15]: 8%
Activity [16]: 66%
Activity [17]: 3%
Activity [18]: 3%
Activity [19]: 79%
Activity [20]: 34%
Activity [21]: -1%
Activity [22]: 43%
Activity [23]: 42%
Activity [24]: 100%
Activity [25]: 37%
Activity [26]: 52%
Activity [27]: 53%
Activity [28]: 38%
Activity [29]: 68%
Activity [30]: 3%
Activity [31]: -6%
SMILES: CNC(=O)c1cc(Oc2ccc(NC(=O)Nc3ccc(Cl)c(C(F)(F)F)c3)c(F)c2)ccn1
